This note sets out measurements from US20230159467A1, “NOVEL COMPOUNDS USEFUL IN THE TREATMENT AND/OR PREVENTION OF A DISEASE, DISORDER OR CONDITION ASSOCIATED WITH ANGIOTENSIN II” (Vicore Pharma AB, priority 2020, published 2023).

The target of data set [1] is T1, human AT2R (Homo sapiens, UniProt P50052).
T1 construct: host or cells: HEK-293
T1 sequence (P50052 1-363): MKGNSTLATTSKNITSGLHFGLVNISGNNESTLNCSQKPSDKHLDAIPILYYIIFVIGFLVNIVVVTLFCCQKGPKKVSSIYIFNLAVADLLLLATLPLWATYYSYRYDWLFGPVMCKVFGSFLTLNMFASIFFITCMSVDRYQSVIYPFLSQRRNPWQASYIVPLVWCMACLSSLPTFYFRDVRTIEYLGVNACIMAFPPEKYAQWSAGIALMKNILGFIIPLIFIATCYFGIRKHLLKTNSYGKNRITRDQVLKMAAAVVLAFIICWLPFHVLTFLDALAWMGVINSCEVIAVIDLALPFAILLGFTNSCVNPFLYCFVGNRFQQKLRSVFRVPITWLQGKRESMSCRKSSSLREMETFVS
Type of data set: binding. Particulars: HEK-293 cell membranes.

The nature of data set [2]: Stability in human liver microsomes. Type of data set: in vitro ADME. The conditions noted are these: half-life. How it is done:
Stability in liver microsomes. Human, mouse and rat liver microsomes were used to assess the metabolic stability for the compounds. Metabolic stability was determined in 0.5 mg/mL human, mouse or rat liver microsomes at a compound concentration of 1 μM in 100 mM potassium phosphate buffer (pH 7.4) in a total incubation volume of 500 μL by Eurofins. The assay matrix was: human liver microsomes: mixed gender and pool of 50, rat liver microsomes: male, Sprague-Dawley, pool of 100 or more and mouse liver microsomes: male,CD-1, pool of 250 or more. Final microsomal protein concentration: 0.1mg/mL. The test concentration was 0.1 μM with 0.01% DMSO, 0.25% acetonitrile and 0.25% methanol by default. […] The reaction was initiated by adding NADPH-generating system and was incubated for 0, 15, 30, 45, and 60 min. The reaction was stopped by transferring the incubation mixture to acetonitrile/methanol. Samples were then mixed and centrifuged. Four reference compounds were tested in each assay. Propranolol and imipramine are relatively stable, whereas verapamil and terfenadine are readily metabolized inhuman liver microsomes. Samples were analyzed by HPLC-MS/MS using selected reaction monitoring. The HPLC system consisted of a binary LC pump with autosampler, a C-18 column, and a gradient. Peak areas corresponding to the test compound were recorded. The compound remaining was calculated by comparing the peak area at each time point to time zero. The half-life was calculated from the slope of the initial linear range of the logarithmic curve of compound remaining (%) vs. time, assuming first order kinetics. In addition, the intrinsic clearance (Clint) was calculated.^19,20

In data set [3] the target is T2, human AT1R (Homo sapiens, UniProt P30556).
T2 construct: host or cells: HEK-293
T2 sequence (P30556 1-359): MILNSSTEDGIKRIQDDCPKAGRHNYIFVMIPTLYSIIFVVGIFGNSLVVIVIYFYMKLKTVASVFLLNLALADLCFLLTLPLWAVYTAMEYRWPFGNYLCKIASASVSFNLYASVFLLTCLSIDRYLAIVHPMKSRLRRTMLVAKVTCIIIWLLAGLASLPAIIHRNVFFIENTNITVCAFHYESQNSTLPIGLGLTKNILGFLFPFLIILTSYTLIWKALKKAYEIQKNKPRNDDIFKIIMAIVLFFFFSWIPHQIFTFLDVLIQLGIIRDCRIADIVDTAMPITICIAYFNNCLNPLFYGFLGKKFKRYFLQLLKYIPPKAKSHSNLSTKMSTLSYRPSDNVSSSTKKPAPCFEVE
Type of data set: binding. The conditions noted are these: HEK-293 cell membranes.

In data set [4] the target is T3, CYP2B6 (Homo sapiens, UniProt P20813).
T3 sequence (P20813 1-491): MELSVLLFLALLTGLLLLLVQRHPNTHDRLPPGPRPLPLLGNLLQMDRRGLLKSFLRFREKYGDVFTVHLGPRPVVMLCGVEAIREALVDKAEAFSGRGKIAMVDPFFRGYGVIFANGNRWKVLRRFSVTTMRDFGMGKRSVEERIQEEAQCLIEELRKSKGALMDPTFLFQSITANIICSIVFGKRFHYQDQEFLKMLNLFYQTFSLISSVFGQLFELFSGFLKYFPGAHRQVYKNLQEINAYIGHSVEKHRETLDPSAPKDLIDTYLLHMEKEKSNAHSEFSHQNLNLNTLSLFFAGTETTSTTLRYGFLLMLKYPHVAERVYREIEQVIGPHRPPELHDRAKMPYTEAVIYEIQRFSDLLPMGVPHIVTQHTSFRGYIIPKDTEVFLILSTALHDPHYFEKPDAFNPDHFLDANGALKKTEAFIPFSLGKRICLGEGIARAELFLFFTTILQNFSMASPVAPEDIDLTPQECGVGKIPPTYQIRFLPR
Nature of the data set: CYP450 inhibition assay, pooled human liver microsomes, bupropion substrate. Particulars: both, human, pooled human liver microsomes, pH 7.4, probe bupropion.

Data set [5] relates to CYP3A. Nature of the data set: CYP450 inhibition assay, pooled human liver microsomes, testosterone substrate. The conditions noted are these: both, human, pooled human liver microsomes, pH 7.4, probe testosterone, CYP 450 Inhibition CYP3A testosterone, at 10 μM.
The target of data set [6] is CYP2C9 (Homo sapiens, UniProt P11712). Nature of the data set: CYP450 inhibition assay, pooled human liver microsomes, diclofenac substrate. Particulars: both, human, pooled human liver microsomes, pH 7.4, probe diclofenac.
For data set [7], the target named is T4, CYP2C8 (Homo sapiens, UniProt P10632).
T4 sequence (P10632 1-490): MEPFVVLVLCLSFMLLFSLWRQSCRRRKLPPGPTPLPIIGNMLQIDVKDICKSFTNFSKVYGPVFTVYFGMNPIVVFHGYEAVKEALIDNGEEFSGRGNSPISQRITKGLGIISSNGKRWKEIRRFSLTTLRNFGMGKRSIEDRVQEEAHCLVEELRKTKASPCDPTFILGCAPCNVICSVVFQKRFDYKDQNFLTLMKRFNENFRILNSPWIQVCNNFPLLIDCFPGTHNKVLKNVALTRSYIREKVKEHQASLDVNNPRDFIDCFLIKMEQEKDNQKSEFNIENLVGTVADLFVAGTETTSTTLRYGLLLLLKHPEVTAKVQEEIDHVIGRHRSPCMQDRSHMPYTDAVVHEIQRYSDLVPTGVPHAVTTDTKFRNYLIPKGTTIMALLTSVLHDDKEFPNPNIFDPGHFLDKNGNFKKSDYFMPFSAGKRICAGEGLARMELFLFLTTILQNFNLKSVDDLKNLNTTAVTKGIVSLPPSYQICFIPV
As to the kind of experiment: CYP450 inhibition assay, pooled human liver microsomes, amodiaquine substrate. Particulars: both, human, pooled human liver microsomes, pH 7.4, probe amodiaquine.

The subject of data set [8] is CYP3A. As to the kind of experiment: CYP450 inhibition assay, pooled human liver microsomes, midazolam substrate. Particulars: both, human, pooled human liver microsomes, pH 7.4, probe midazolam.
Data set [9] deals with CYP2C19 (Homo sapiens, UniProt P33261). As to the kind of experiment: CYP450 inhibition assay, pooled human liver microsomes, omeprazole substrate. Particulars: both, human, pooled human liver microsomes, pH 7.4, probe omeprazole.
For data set [10], the target named is T5, CYP1A (Homo sapiens, UniProt P05177).
T5 sequence (P05177 1-516): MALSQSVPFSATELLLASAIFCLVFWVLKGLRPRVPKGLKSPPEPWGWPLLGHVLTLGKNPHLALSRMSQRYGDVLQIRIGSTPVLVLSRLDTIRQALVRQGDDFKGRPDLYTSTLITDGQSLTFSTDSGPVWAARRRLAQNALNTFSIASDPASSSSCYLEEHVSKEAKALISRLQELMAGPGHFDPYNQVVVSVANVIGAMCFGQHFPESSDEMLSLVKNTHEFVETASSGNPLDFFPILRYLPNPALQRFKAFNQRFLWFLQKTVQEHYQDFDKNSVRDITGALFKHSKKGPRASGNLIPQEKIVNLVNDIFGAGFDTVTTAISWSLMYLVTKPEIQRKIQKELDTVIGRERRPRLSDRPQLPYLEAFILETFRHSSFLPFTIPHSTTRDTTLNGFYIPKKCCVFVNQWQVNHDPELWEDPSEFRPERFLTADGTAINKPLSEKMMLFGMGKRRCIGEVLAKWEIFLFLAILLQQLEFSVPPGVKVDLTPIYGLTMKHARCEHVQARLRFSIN
As to the kind of experiment: CYP450 inhibition assay, pooled human liver microsomes, phenacetin substrate. Particulars: both, human, pooled human liver microsomes, pH 7.4, probe phenacetin.

The target of data set [11] is CYP2D6 (Homo sapiens, UniProt P10635). As to the kind of experiment: CYP450 inhibition assay, pooled human liver microsomes, dextromethorphan substrate. Particulars: both, human, pooled human liver microsomes, pH 7.4, probe dextromethorphan.
Chain of CYP2D6 (P10635 whole entry): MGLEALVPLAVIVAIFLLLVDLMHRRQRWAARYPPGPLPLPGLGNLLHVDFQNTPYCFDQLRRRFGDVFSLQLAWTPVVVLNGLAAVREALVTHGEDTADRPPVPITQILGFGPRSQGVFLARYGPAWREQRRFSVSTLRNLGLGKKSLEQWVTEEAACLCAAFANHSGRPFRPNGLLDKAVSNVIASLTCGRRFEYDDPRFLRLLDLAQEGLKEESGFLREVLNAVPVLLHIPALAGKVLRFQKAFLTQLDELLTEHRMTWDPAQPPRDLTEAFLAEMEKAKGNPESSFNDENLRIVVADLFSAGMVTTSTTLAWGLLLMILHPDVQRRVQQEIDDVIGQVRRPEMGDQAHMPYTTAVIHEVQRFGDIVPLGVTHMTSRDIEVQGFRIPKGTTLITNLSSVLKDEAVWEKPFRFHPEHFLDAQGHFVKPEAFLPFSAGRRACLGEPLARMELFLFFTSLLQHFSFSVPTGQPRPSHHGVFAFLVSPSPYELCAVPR

Chain of CYP2C9 (P11712 whole entry): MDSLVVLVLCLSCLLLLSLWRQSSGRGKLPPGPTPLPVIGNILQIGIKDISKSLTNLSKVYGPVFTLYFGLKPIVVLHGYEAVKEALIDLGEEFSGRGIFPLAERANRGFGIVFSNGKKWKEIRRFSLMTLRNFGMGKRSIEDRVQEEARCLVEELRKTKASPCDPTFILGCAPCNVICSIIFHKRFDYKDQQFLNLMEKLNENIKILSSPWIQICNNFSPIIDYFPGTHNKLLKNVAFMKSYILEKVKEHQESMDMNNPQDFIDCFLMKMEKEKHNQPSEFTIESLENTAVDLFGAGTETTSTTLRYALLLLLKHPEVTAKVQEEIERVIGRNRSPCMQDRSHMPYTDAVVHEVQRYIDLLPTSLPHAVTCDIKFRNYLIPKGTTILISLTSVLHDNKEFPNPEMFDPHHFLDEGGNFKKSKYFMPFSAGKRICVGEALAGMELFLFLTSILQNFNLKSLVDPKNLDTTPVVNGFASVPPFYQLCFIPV
Chain of CYP2C19 (P33261 whole entry): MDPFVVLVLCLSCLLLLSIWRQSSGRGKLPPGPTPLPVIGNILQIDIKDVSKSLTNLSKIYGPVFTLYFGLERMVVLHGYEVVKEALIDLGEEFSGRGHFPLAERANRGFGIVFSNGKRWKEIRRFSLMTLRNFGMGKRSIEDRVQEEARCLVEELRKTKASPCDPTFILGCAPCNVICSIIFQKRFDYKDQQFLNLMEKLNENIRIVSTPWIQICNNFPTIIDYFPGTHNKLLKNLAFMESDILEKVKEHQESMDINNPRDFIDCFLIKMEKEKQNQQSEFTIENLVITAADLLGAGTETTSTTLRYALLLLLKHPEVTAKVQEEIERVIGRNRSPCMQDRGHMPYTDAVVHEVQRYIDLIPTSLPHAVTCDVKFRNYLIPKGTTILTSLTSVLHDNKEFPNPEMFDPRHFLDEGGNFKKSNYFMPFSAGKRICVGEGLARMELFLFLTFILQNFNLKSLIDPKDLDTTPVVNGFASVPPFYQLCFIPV

As for `CCCCOC(=O)NS(=O)(=O)c1sc(CC(C)C)nc1-c1ccc(Cn2ccnc2C(C)(C)O)cc1` [Example 17A, Butyl ((4-(4-((2-(2-hydroxypropan-2-yl)-1H-imidazol-1-yl)methyl)phenyl)-2-isobutylthiazol-5-yl)sulfonyl)carbamate], the values for the inhibitory constant (Ki) in data set [1] and in data set [3] were 12 nM and 1000 nM, respectively. Further, the “Stability in liver microsomes HLM” value in [2] is recorded as more than 60 min.
Molecule `COC(=O)NS(=O)(=O)c1sc(CC(C)C)nc1-c1ccc(Cn2ccnc2C(C)C)cc1` [Example 20, Methyl ((2-isobutyl-4-(4-((2-isopropyl-1H-imidazol-1-yl)methyl)phenyl)thiazol-5-yl)sulfonyl)carbamate] returned a Ki in data set [1] of 27 nM. The “Stability in liver microsomes HLM” value in data set [2] is listed as more than 60 min.
Regarding `CCCCOC(=O)NS(=O)(=O)c1ccc(CC(C)C)cc1-c1ccc(Cn2ccnc2C(C)(C)F)cc1` [Example 32, Butyl ((4′-((2-(2-fluoropropan-2-yl)-1H-imidazol-1-yl)methyl)-5-isobutyl-[1,1′-biphenyl]-2-yl)sulfonyl)carbamate], the inhibition at 10 min, 10 µM was 29.8% in [4]; 8.43% in [5]; 43.7% in data set [6]; 66.5% in data set [7]; -11.7% in data set [8]; 31% in [9]. The inhibition at 10 min, 10 µM in data set [10] is -3.04%; in data set [11] it was 17.1%.
Take `CCCCOC(=O)NS(=O)(=O)c1sc(CC(C)C)nc1-c1ccc(Cn2ccnc2-c2nccs2)cc1` [Example 16, Butyl ((2-isobutyl-4-(4-((2-(thiazol-2-yl)-1H-imidazol-1-yl)methyl)phenyl)thiazol-5-yl)su Ifonyl)carbamate]: the Ki amounted to 41 nM in [1] and 1000 nM in [3]. The “Stability in liver microsomes HLM” value in data set [2] is more than 60 min.
Consider `CCCCOC(=O)NS(=O)(=O)c1sc(CC(C)C)nc1-c1ccc(Cn2ccnc2C(C)C)cc1` [Example 18, Butyl ((2-isobutyl-4-(4-((2-isopropyl-1H-imidazol-1-yl)methyl)phenyl)thiazol-5-yl)sulfonyl)carbamate], for which the inhibitory constant (Ki) in [1] is 5.8 nM; in [3], 1000 nM. For the same molecule, the “Stability in liver microsomes HLM” value in data set [2] is listed as more than 60 min.
The corresponding values for `CCCc1ccc(S(=O)(=O)[N-]C(=O)OC)c(-c2ccc(Cn3ccnc3C(C)(C)O)cc2)c1.[K+]` [Example 30B, Potassium (methoxycarbonyl) ((4′-((2-(2-hydroxypropan-2-yl)-1H-imidazol-1-yl)methyl)-5-propyl-[1,1′-biphenyl]-2-yl)sulfonyl)amide] are 4.6 nM, 1000 nM and more than 60 min.
As for `COC(=O)NS(=O)(=O)c1ccc(CC(C)C)cc1-c1ccc(Cn2ccnc2C(C)(C)F)cc1` [Example 34, Methyl ((4′-((2-(2-fluoropropan-2-yl)-1H-imidazol-1-yl)methyl)-5-isobutyl-[1,1′-biphenyl]-2-yl)sulfonyl)carbamate], the inhibition constant (Ki) amounted to 2.3 nM in data set [1] and 15000 nM in data set [3]. Also, the inhibition at 10 min, 10 µM in data set [4] was 6.9%; in data set [5], 18.1%; in [6], 42.2%; in data set [7], 70.3%; in data set [8] it was 9.98%; in [9] it was 43.3%. Further, the inhibition at 10 min, 10 µM is -5.97% in data set [10] and 16.2% in [11].
